Measurements published in paper PMC9000871, “Rhodamine 101 Conjugates of Triterpenoic Amides Are of Comparable Cytotoxicity as Their Rhodamine B Analogs” (Molecules, 2022).
Structures can show the parent of a compound that is named as a salt.

Tests used:
[1] = test system: NIH 3T3 (fibroblasts), non-malignant; assay: SRB cytotoxicity assay, NIH 3T3; type: cell-based; conditions: Mus musculus, NIH3T3, 72 h, 72 h of treatment, mean ± standard mean error
Excerpt: (§1) The cell lines were obtained from Department of Oncology (Martin-Luther-University Halle Wittenberg; they were bought from ATCC; A 375 (CRL-1619), HT29 (HTB-38), MCF7 (HTM-22), A2780 (HTP-77), FaDu (HTP-43), NIH 3T3 (CRL-1658), HEK-293 (CRL-1573)). Cultures were maintained as monolayers in RPMI 1640 medium with L-glutamine (Capricorn Scientific GmbH, Ebsdorfergrund, Germany) supplemented with 10% heat inactivated fetal bovine serum (Sigma-Aldrich Chemie GmbH, Steinheim, Germany) and penicillin/streptomycin (1%, Capricorn Scientific GmbH, Ebsdorfergrund, Germany) at 37 °C in a humidified atmosphere with 5% CO2. The cytotoxicity of the compounds was evaluated using the sulforhodamine-B (Kiton-Red S, ABCR) micro culture colorimetric assay using confluent cells in 96-well plates with the seeding of the cells on day 0 applying appropriate cell densities to prevent confluence of the cells during the period of the experiment. On day 1, the cells were treated with six different concentrations (1, 3, 7, 12, 20, and 30 μM); thereby, the final concentration of DMSO was always <0.5%, generally regarded as non-toxic to the cells. On day 4, the supernatant medium was discarded; the cells were fixed with 10% trichloroacetic acid. After another day at 4 °C, the cells were washed in a strip washer and dyed with the SRB solution (100 μL, 0.4% in 1% acetic acid) for about 20 min to be followed by washing of the plates (four times, 1% acetic acid) and air-drying overnight. Furthermore, tris base solution (200 μL, 10 mM) was added to each well and absorbance was measured at λ = 570 nm employing a reader (96 wells, Tecan Spectra, Crailsheim, Germany). The EC50 values were averaged from three independent experiments performed each in triplicate calculated from semi logarithmic dose response curves applying a non-linear four-parameter Hills-slope equation (GraphPad Prism5; variables top and bottom were set to 100 and 0, respectively).

[2] = test system: A2780 (ovarian carcinoma); assay: SRB cytotoxicity assay, A2780; type: cell-based; conditions: Homo sapiens, 72 h of treatment, mean ± standard mean error
Excerpt: as §1

A375 (melanoma) = assay: SRB cytotoxicity assay, A375; type: cell-based, human; conditions: Homo sapiens, A-375, 72 h, 72 h of treatment, mean ± standard mean error
Excerpt: as §1

[3] = test system: HT29 (colon adenocarcinoma); assay: SRB cytotoxicity assay, HT29; type: cell-based, human; conditions: Homo sapiens, HT-29, 72 h, 72 h of treatment, mean ± standard mean error
Excerpt: as §1

[4] = test system: MCF-7 (breast adenocarcinoma); assay: SRB cytotoxicity assay, MCF-7; type: cell-based; conditions: Homo sapiens, MCF7, 72 h of treatment, mean ± standard mean error
Excerpt: as §1

Compound	melting point [°C]	EC50 [1] [nM]	EC50 [2] [nM]	EC50 (A375 (melanoma)) [nM]	EC50 [3] [nM]	EC50 [4] [nM]
C=C(C)[C@@H]1CC[C@]2(C(=O)N3CCCN(C(=O)c4ccccc4-c4c5ccc(=[N+](CC)CC)cc-5oc5cc(N(CC)CC)ccc45)CC3)CC[C@]3(C)C(CCC4[C@@]5(C)CC[C@H](OC(C)=O)C(C)(C)C5CC[C@]43C)C12 (stereo partly drawn) (as salt: chloride) (hydrate or solvate) [compound 17, 9-[2-[[4-(3β-Acetyloxy-28-oxo-30-norlupan-28-yl)-1-homopiperazinyl]carbonyl]phenyl]-3,6-bis(diethylamino)-xanthylium chloride]	261 to 266	–	–	–	–	–
CCN(CC)c1ccc2c(-c3ccccc3C(=O)N3CCCN(C(=O)[C@]45CCC(C)(C)CC4C4=CCC6[C@@]7(C)CC[C@H](OC(C)=O)C(C)(C)C7CC[C@@]6(C)[C@]4(C)CC5)CC3)c3ccc(=[N+](CC)CC)cc-3oc2c1 (stereo partly drawn) (as salt: chloride) (hydrate or solvate) [compound 18, 9-[2-[[4-(3β-Acetyloxy-28-oxo-olean-12-en-28-yl]-1-homopiperazinyl]carbonyl]phenyl]-3,6-bis(diethylamino)-xanthylium chloride]	235 to 241	–	–	–	–	–
CCN(CC)c1ccc2c(-c3ccccc3C(=O)N3CCCN(C(=O)[C@]45CC[C@@H](C)[C@H](C)C4C4=CCC6[C@@]7(C)CC[C@H](OC(C)=O)C(C)(C)C7CC[C@@]6(C)[C@]4(C)CC5)CC3)c3ccc(=[N+](CC)CC)cc-3oc2c1 (stereo partly drawn) (as salt: chloride) (hydrate or solvate) [compound 19, 9-[2-[[4-(3β-Acetyloxy-28-oxo-urs-12-en-28-yl]-1-homopiperazinyl]carbonyl]phenyl]-3,6-bis(diethylamino)-xanthylium chloride]	238 to 246	–	–	–	–	–
C=C(C)[C@@H]1CC[C@]2(C(=O)N3CCNCC3)CC[C@]3(C)C(CCC4[C@@]5(C)CC[C@H](OC(C)=O)C(C)(C)C5CC[C@]43C)C12 (stereo partly drawn) [compound 5, 3β-Acetyloxy-28-(1-piperazinyl)-lup-20(29)en-28-one]	–	900 ± 100	1900 ± 100	1500 ± 300	1000 ± 100	1400 ± 100
C=C(C)[C@@H]1CC[C@]2(C(=O)N3CCCNCC3)CC[C@]3(C)C(CCC4[C@@]5(C)CC[C@H](OC(C)=O)C(C)(C)C5CC[C@]43C)C12 (stereo partly drawn) [compound 9, 3β-Acetyloxy-28-(1-homopiperazinyl)-lup-20(29)en-28-one]	–	18700 ± 1600	12000 ± 600	18700 ± 1600	5100 ± 1100	10700 ± 1000
C=C(C)[C@@H]1CC[C@]2(C(=O)N3CCN(C(=O)c4ccccc4-c4c5ccc(=[N+](CC)CC)cc-5oc5cc(N(CC)CC)ccc45)CC3)CC[C@]3(C)C(CCC4[C@@]5(C)CC[C@H](OC(C)=O)C(C)(C)C5CC[C@]43C)C12 (stereo partly drawn) [compound 13, 9-[2-[[4-(3β-Acetyloxy-28-oxo-lup-20(29)en-28-yl)-1-piperazinyl]carbonyl]phenyl]-3,6-bis(diethylamino)-xanthylium chloride]	–	208 ± 34	50 ± 4	90 ± 10	151 ± 22	81 ± 5
CCN(CC)c1ccc2c(-c3ccccc3C(=O)N3CCN(C(=O)[C@]45CCC(C)(C)CC4C4=CCC6[C@@]7(C)CC[C@H](OC(C)=O)C(C)(C)C7CC[C@@]6(C)[C@]4(C)CC5)CC3)c3ccc(=[N+](CC)CC)cc-3oc2c1 (stereo partly drawn) [compound 14, 9-[2-[[4-(3β-Acetyloxy-28-oxo-olean-12-en-28-yl)-1-piperazinyl]carbonyl]phenyl]-3,6-bis(diethylamino)-xanthylium chloride]	–	137 ± 6	32 ± 1	90 ± 10	91 ± 10	62 ± 4
CCN(CC)c1ccc2c(-c3ccccc3C(=O)N3CCN(C(=O)[C@]45CC[C@@H](C)[C@H](C)C4C4=CCC6[C@@]7(C)CC[C@H](OC(C)=O)C(C)(C)C7CC[C@@]6(C)[C@]4(C)CC5)CC3)c3ccc(=[N+](CC)CC)cc-3oc2c1 (stereo partly drawn) [compound 15, 9-[2-[[4-(3β-Acetyloxy-28-oxo-ursan-12-en-28-yl)-1-piperazinyl]carbonyl]phenyl]-3,6-bis(diethylamino)-xanthylium chloride]	–	137 ± 9	38 ± 2	40 ± 20	83 ± 7	75 ± 5
CCN(CC)c1ccc2c(-c3ccccc3C(=O)N3CCN(C(=O)[C@]45CC[C@@H](C(C)=O)C4C4CCC6[C@@]7(C)CC[C@H](OC(C)=O)C(C)(C)C7CC[C@@]6(C)[C@]4(C)CC5)CC3)c3ccc(=[N+](CC)CC)cc-3oc2c1 (stereo partly drawn) [compound 16, 9-[2-[[4-(3β-Acetyloxy-20,28-dioxo-30-norlupan-28-yl)-1-piperazinyl]carbonyl]phenyl]-3,6-bis(diethylamino)-xanthylium chloride]	–	171 ± 6	36 ± 1	80 ± 30	99 ± 16	70 ± 2
C=C(C)[C@@H]1CC[C@]2(C(=O)N3CCCN(C(=O)c4ccccc4-c4c5ccc(=[N+](CC)CC)cc-5oc5cc(N(CC)CC)ccc45)CC3)CC[C@]3(C)C(CCC4[C@@]5(C)CC[C@H](OC(C)=O)C(C)(C)C5CC[C@]43C)C12 (stereo partly drawn) [compound 17, 9-[2-[[4-(3β-Acetyloxy-28-oxo-30-norlupan-28-yl)-1-homopiperazinyl]carbonyl]phenyl]-3,6-bis(diethylamino)-xanthylium chloride]	–	330 ± 70	220 ± 10	760 ± 90	280 ± 10	220 ± 20
CCN(CC)c1ccc2c(-c3ccccc3C(=O)N3CCCN(C(=O)[C@]45CCC(C)(C)CC4C4=CCC6[C@@]7(C)CC[C@H](OC(C)=O)C(C)(C)C7CC[C@@]6(C)[C@]4(C)CC5)CC3)c3ccc(=[N+](CC)CC)cc-3oc2c1 (stereo partly drawn) [compound 18, 9-[2-[[4-(3β-Acetyloxy-28-oxo-olean-12-en-28-yl]-1-homopiperazinyl]carbonyl]phenyl]-3,6-bis(diethylamino)-xanthylium chloride]	–	140 ± 20	20 ± 3	40 ± 10	40 ± 10	30 ± 4
CCN(CC)c1ccc2c(-c3ccccc3C(=O)N3CCCN(C(=O)[C@]45CC[C@@H](C)[C@H](C)C4C4=CCC6[C@@]7(C)CC[C@H](OC(C)=O)C(C)(C)C7CC[C@@]6(C)[C@]4(C)CC5)CC3)c3ccc(=[N+](CC)CC)cc-3oc2c1 (stereo partly drawn) [compound 19, 9-[2-[[4-(3β-Acetyloxy-28-oxo-urs-12-en-28-yl]-1-homopiperazinyl]carbonyl]phenyl]-3,6-bis(diethylamino)-xanthylium chloride]	–	400 ± 30	450 ± 30	510 ± 50	500 ± 70	390 ± 40
CCN(CC)c1ccc2c(-c3ccccc3C(=O)N3CCCN(C(=O)[C@]45CC[C@@H](C(C)=O)C4C4CCC6[C@@]7(C)CC[C@H](OC(C)=O)C(C)(C)C7CC[C@@]6(C)[C@]4(C)CC5)CC3)c3ccc(=[N+](CC)CC)cc-3oc2c1 (stereo partly drawn) [compound 20, 9-[2-[[4-(3β-Acetyloxy-20,28-dioxo-30-norlupan-28-yl)-1-homopiperazinyl]carbonyl]phenyl]-3,6-bis(diethylamino)-xanthylium chloride]	–	340 ± 56	120 ± 18	240 ± 17	300 ± 27	150 ± 50
